From publication PMC9571063 (Molecules, 2022)

Assays:
[1] = target: T1, WNK4 (Homo sapiens, UniProt Q96J92); experiment: KINOMEscan; format: binding; details: read-out: Percent Control
T1 construct: purchased Eurofins (KINOMEscan, DiscoverX)

[2] = target: T2, TAOK3 (Homo sapiens, UniProt Q9H2K8); experiment: KINOMEscan; format: binding; details: read-out: Percent Control
T2 construct: purchased Eurofins DiscoverX KINOMEscan (scanMAX 468)

[3] = target: T3, EPHA5 (Homo sapiens, UniProt P54756); experiment: KINOMEscan; format: binding; details: read-out: Percent Control
T3 construct: purchased Eurofins DiscoverX KINOMEscan (scanMAX 468)

[4] = target: T4, RPS6KA5(Kin.Dom.1-N-terminal) (Homo sapiens, UniProt O75582); experiment: KINOMEscan; format: binding; details: read-out: Percent Control
T4 construct: RPS6KA5(Kin.Dom.1-N-terminal); purchased Eurofins DiscoverX KINOMEscan (scanMAX 468)

[5] = target: T5, ABL1(H396P)-phosphorylated (Homo sapiens, UniProt P00519, H396P); experiment: KINOMEscan; format: binding; details: read-out: Percent Control
T5 construct: purchased Eurofins DiscoverX KINOMEscan (scanMAX 468)

[6] = target: T6, KIT(D816H) (Homo sapiens, UniProt P10721, D816H); experiment: KINOMEscan; format: binding; details: read-out: Percent Control
T6 construct: purchased Eurofins DiscoverX KINOMEscan (scanMAX 468)
T6 sequence (P10721 26-976 D816H): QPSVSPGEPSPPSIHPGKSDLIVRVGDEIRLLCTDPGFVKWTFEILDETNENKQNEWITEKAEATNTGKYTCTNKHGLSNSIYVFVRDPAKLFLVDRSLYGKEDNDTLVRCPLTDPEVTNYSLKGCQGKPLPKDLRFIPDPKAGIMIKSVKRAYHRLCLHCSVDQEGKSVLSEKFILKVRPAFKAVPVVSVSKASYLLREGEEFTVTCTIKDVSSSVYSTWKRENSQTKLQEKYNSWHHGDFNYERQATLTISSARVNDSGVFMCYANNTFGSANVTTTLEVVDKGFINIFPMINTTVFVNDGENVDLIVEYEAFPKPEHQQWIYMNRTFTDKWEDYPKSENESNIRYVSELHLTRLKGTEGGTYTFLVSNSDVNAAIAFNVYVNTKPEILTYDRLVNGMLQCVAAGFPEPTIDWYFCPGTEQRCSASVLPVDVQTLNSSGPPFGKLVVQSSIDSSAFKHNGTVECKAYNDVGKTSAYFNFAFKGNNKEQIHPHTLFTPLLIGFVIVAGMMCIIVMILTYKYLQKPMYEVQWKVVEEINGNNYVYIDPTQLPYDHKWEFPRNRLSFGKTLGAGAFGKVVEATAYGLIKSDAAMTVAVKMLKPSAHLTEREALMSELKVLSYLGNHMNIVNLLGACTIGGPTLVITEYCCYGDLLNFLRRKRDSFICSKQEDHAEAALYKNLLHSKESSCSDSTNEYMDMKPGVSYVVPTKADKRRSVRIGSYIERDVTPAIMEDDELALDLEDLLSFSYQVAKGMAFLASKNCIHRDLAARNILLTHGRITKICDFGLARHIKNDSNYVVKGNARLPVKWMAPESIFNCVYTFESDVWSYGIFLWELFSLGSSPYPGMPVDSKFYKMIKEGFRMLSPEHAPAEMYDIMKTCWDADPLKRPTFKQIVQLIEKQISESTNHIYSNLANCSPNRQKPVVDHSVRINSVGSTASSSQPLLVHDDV

[7] = target: T7, PIK4CB (Homo sapiens, UniProt Q9UBF8); experiment: KINOMEscan; format: binding; details: read-out: Percent Control
T7 construct: purchased Eurofins DiscoverX KINOMEscan (scanMAX 468)

[8] = target: T8, EGFR (Homo sapiens, UniProt P00533); experiment: KINOMEscan; format: binding; details: read-out: Percent Control
T8 construct: purchased Eurofins DiscoverX KINOMEscan (scanMAX 468)

[9] = target: T9, MLK1 (Homo sapiens, UniProt P80192); experiment: KINOMEscan; format: binding; details: read-out: Percent Control
T9 construct: purchased Eurofins DiscoverX KINOMEscan (scanMAX 468)

[10] = target: T10, EPHA4 (Homo sapiens, UniProt P54764); experiment: KINOMEscan; format: binding; details: read-out: Percent Control
T10 construct: purchased Eurofins DiscoverX KINOMEscan (scanMAX 468)

[11] = tested on: FLT3(ITD); experiment: KINOMEscan; format: binding, human; details: 1 μM
[12] = target: T11, CDKL5 (Homo sapiens, UniProt O76039); experiment: KINOMEscan; format: binding; details: read-out: Percent Control
T11 construct: purchased Eurofins DiscoverX KINOMEscan (scanMAX 468)

[13] = target: T12, FLT1 (Homo sapiens, UniProt P17948); experiment: KINOMEscan; format: binding; details: read-out: Percent Control
T12 construct: purchased Eurofins DiscoverX KINOMEscan (scanMAX 468)

[14] = target: T13, MST2 (Homo sapiens, UniProt Q13188); experiment: KINOMEscan; format: binding; details: read-out: Percent Control
T13 construct: purchased Eurofins DiscoverX KINOMEscan (scanMAX 468)

[15] = target: T14, GAK (Homo sapiens, UniProt O14976); experiment: KINOMEscan; format: binding; details: read-out: Percent Control
T14 construct: purchased Eurofins DiscoverX KINOMEscan (scanMAX 468)

[16] = tested on: panel of 468 kinases; experiment: KINOMEscan, whole panel selectivity score; format: binding, human; details: 1 µM; non-mutant kinases with %Ctrl < 25 / 403 non-mutant kinases tested
[17] = tested on: HCT116; set-up: method as in ref 14 (a number printed in a supplementary file, which may have a reference list of its own: not looked up in the article's list); details: DB18[a], footnote not given; read-out: Cytotoxic studies IC50 HCT116; cited from earlier work
[18] = target: T15, ICK (Homo sapiens, UniProt Q9UPZ9); experiment: KINOMEscan; format: binding; details: read-out: Percent Control
T15 construct: purchased Eurofins DiscoverX KINOMEscan (scanMAX 468)

[19] = target: T16, MEK2 (Homo sapiens, UniProt P36507); experiment: KINOMEscan; format: binding; details: read-out: Percent Control
T16 construct: purchased Eurofins DiscoverX KINOMEscan (scanMAX 468)

[20] = target: T17, PIK3CD (Homo sapiens, UniProt O00329); experiment: KINOMEscan; format: binding; details: read-out: Percent Control
T17 construct: purchased Eurofins DiscoverX KINOMEscan (scanMAX 468)

[21] = target: T18, TYK2(JH2domain-pseudokinase) (Homo sapiens, UniProt P29597); experiment: KINOMEscan; format: binding; details: read-out: Percent Control
T18 construct: TYK2(JH2domain-pseudokinase); purchased Eurofins DiscoverX KINOMEscan (scanMAX 468)

[22] = target: T19, TNK1 (Homo sapiens, UniProt Q13470); experiment: KINOMEscan; format: binding; details: read-out: Percent Control
T19 construct: purchased Eurofins DiscoverX KINOMEscan (scanMAX 468)
T19 sequence (Q13470 whole entry): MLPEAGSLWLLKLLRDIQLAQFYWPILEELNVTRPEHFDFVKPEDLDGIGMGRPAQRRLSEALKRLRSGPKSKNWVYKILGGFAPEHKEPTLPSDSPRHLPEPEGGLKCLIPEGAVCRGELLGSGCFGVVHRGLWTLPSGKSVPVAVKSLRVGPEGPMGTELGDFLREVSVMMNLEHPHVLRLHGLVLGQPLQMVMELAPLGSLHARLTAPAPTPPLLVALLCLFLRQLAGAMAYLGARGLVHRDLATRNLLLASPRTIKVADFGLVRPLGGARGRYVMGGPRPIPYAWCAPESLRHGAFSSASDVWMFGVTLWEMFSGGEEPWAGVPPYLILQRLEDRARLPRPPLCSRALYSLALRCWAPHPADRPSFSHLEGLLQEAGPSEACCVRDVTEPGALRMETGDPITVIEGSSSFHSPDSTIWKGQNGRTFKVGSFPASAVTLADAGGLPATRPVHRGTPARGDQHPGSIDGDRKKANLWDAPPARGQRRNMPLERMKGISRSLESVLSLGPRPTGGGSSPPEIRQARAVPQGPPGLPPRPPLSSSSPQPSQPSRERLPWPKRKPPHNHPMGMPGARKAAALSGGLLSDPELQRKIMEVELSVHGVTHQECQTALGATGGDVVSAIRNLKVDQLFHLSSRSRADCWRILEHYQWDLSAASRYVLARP

[23] = target: T20, ABL1(T315I)-nonphosphorylated (Homo sapiens, UniProt P00519, T315I); experiment: KINOMEscan; format: binding; details: read-out: Percent Control
T20 construct: purchased Eurofins DiscoverX KINOMEscan (scanMAX 468)

[24] = target: T21, PRKCD (Homo sapiens, UniProt Q05655); experiment: KINOMEscan; format: binding; details: read-out: Percent Control
T21 construct: purchased Eurofins DiscoverX KINOMEscan (scanMAX 468)

[25] = target: T22, PFCDPK1(P.falciparum) (Plasmodium falciparum, UniProt P62344); experiment: KINOMEscan; format: binding; details: read-out: Percent Control
T22 construct: purchased Eurofins DiscoverX KINOMEscan (scanMAX 468)

[26] = tested on: Human skin fibroblasts; set-up: method as in ref 14 (a number printed in a supplementary file, which may have a reference list of its own: not looked up in the article's list); details: DB18[a], footnote not given; read-out: Cytotoxic studies IC50 Fibroblasts; cited from earlier work
[27] = target: T23, ABL2 (Homo sapiens, UniProt P42684); experiment: KINOMEscan; format: binding; details: read-out: Percent Control
T23 construct: purchased Eurofins DiscoverX KINOMEscan (scanMAX 468)

[28] = target: T24, SIK (Homo sapiens, UniProt P57059); experiment: KINOMEscan; format: binding; details: read-out: Percent Control
T24 construct: purchased Eurofins DiscoverX KINOMEscan (scanMAX 468)

[29] = target: T25, ABL1(Q252H)-nonphosphorylated (Homo sapiens, UniProt P00519, Q252H); experiment: KINOMEscan; format: binding; details: read-out: Percent Control
T25 construct: purchased Eurofins DiscoverX KINOMEscan (scanMAX 468)

[30] = target: T26, MST1 (Homo sapiens, UniProt Q13043); experiment: KINOMEscan; format: binding; details: read-out: Percent Control
T26 construct: purchased Eurofins DiscoverX KINOMEscan (scanMAX 468)

[31] = target: T27, MAPKAPK2 (Homo sapiens, UniProt P49137); experiment: KINOMEscan; format: binding; details: read-out: Percent Control
T27 construct: purchased Eurofins DiscoverX KINOMEscan (scanMAX 468)
T27 sequence (P49137 whole entry): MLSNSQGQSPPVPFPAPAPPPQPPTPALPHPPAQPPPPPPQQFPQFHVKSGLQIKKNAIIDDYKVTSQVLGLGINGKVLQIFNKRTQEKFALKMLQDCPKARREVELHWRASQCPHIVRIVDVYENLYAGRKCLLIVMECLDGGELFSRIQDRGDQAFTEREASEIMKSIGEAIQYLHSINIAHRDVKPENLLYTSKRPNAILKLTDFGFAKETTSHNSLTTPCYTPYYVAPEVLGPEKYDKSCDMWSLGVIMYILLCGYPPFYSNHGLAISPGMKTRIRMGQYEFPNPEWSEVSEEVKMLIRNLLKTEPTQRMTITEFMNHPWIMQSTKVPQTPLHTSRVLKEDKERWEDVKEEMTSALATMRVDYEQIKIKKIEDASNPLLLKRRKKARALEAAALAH

[32] = target: T28, YANK1 (Homo sapiens, UniProt Q8WU08); experiment: KINOMEscan; format: binding; details: read-out: Percent Control
T28 construct: purchased Eurofins (KINOMEscan, DiscoverX)

[33] = target: T29, MYO3B (Homo sapiens, UniProt Q8WXR4); experiment: KINOMEscan; format: binding; details: read-out: Percent Control
T29 construct: purchased Eurofins DiscoverX KINOMEscan (scanMAX 468)

[34] = target: T30, CDC2L2 (Homo sapiens, UniProt Q9UQ88); experiment: KINOMEscan; format: binding; details: read-out: Percent Control
T30 construct: purchased Eurofins DiscoverX KINOMEscan (scanMAX 468)
T30 sequence (Q9UQ88 whole entry): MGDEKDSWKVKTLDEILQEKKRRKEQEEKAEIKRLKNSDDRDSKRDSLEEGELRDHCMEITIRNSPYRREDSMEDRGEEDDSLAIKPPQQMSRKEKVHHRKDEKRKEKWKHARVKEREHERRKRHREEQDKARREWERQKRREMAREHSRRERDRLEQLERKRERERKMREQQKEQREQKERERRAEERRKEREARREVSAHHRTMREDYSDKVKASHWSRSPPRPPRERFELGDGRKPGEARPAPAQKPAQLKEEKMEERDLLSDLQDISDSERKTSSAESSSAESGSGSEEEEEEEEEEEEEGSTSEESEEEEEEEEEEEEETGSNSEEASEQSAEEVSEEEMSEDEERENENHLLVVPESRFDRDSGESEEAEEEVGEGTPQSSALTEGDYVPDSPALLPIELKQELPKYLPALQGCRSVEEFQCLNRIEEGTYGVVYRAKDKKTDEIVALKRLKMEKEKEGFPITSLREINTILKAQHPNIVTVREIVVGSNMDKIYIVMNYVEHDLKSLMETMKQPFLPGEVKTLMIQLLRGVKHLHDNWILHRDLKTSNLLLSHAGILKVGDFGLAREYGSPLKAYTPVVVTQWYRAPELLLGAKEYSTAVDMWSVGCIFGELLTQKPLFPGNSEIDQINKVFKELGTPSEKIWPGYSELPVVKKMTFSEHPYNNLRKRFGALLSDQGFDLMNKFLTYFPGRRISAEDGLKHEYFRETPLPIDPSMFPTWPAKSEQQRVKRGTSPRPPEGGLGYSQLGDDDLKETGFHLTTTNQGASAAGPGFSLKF

[35] = tested on: HuH7; set-up: method as in ref 14 (a number printed in a supplementary file, which may have a reference list of its own: not looked up in the article's list); details: DB18[a], footnote not given; read-out: Cytotoxic studies IC50 HuH7; cited from earlier work
[36] = target: T31, JAK3(JH1domain-catalytic) (Homo sapiens, UniProt P52333); experiment: KINOMEscan; format: binding; details: read-out: Percent Control
T31 construct: JAK3(JH1domain-catalytic); purchased Eurofins DiscoverX KINOMEscan (scanMAX 468)

[37] = target: T32, GRK7 (Homo sapiens, UniProt Q8WTQ7); experiment: KINOMEscan; format: binding; details: read-out: Percent Control
T32 construct: purchased Eurofins DiscoverX KINOMEscan (scanMAX 468)

[38] = target: T33, FLT3 (Homo sapiens, UniProt P36888); experiment: KINOMEscan; format: binding; details: read-out: Percent Control
T33 construct: purchased Eurofins DiscoverX KINOMEscan (scanMAX 468)
T33 sequence (P36888 27-993): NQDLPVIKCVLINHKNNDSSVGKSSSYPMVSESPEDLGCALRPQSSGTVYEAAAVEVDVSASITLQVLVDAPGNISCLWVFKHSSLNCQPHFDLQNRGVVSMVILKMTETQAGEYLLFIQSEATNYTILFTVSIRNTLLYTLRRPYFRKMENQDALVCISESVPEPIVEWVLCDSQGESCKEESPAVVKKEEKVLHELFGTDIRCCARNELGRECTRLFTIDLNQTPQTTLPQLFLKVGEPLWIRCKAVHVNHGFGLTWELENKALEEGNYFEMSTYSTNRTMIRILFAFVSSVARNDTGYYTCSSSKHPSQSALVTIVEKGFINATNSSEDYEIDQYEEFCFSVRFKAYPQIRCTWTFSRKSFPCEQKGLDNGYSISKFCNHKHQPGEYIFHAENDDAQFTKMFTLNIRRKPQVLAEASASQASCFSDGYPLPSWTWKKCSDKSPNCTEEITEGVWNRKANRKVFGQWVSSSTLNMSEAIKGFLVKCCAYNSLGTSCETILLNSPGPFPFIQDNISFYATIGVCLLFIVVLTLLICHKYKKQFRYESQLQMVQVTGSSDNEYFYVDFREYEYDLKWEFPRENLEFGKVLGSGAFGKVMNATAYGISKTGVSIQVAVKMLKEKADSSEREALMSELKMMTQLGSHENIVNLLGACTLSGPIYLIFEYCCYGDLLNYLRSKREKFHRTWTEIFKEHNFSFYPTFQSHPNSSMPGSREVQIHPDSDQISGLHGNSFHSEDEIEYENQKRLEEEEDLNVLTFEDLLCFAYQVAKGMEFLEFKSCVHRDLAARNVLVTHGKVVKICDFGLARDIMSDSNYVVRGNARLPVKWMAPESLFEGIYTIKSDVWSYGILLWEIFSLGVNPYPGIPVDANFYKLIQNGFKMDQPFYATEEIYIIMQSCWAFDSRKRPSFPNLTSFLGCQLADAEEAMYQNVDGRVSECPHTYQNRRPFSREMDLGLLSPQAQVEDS

T1 sequence (Q96J92 whole entry): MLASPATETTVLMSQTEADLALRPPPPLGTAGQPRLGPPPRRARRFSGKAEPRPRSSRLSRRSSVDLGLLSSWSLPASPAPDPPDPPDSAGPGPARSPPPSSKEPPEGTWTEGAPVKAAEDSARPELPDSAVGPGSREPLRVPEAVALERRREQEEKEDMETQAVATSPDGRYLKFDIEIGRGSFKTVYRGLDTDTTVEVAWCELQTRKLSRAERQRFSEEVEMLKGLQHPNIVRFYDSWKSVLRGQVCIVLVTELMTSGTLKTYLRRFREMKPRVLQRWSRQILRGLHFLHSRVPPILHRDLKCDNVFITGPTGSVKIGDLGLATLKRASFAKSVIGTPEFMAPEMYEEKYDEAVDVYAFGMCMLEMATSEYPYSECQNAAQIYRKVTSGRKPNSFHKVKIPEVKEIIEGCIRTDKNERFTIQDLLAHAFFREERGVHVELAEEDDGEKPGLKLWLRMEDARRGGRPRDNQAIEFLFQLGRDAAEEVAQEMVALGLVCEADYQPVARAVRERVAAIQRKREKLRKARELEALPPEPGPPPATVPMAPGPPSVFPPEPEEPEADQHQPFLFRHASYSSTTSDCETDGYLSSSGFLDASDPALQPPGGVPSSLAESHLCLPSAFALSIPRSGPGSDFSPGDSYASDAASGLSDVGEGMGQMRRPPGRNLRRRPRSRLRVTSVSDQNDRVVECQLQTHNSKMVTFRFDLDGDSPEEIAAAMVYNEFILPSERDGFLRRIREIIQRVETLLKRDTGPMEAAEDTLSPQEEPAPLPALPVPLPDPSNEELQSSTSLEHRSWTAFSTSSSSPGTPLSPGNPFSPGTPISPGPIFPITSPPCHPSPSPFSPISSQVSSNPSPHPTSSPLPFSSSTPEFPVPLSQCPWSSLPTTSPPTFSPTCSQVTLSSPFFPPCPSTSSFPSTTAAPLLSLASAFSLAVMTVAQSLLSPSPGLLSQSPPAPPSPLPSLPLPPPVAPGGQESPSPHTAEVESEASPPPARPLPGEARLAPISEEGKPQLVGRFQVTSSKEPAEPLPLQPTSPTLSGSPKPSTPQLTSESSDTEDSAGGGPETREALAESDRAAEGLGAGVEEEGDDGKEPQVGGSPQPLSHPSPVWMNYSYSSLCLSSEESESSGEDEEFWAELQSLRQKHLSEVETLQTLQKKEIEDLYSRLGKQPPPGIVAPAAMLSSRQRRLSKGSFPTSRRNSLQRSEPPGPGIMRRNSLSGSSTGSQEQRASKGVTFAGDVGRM

Cc1ccc(-n2cc(COc3cccc4cnc(Nc5cccc(Cl)c5)nc34)nn2)c([N+](=O)[O-])c1 [DB18]
remaining binding at 1 µM [1]: 100% | remaining binding at 1 µM [2]: 100% | remaining binding at 1 µM [3]: 100% | remaining binding at 1 µM [4]: 100% | remaining binding at 1 µM [5]: 98% | remaining binding at 1 µM [6]: 100% | remaining binding at 1 µM [7]: 94% | remaining binding at 1 µM [8]: 97% | remaining binding at 1 µM [9]: 100% | remaining binding at 1 µM [10]: 88% | Percent Control [11]: 62 % Ctrl | remaining binding at 1 µM [12]: 100% | remaining binding at 1 µM [13]: 100% | remaining binding at 1 µM [14]: 100% | remaining binding at 1 µM [15]: 100% | S-Score(25) [16]: 0.015 | IC50 [17]: > 25 µM | remaining binding at 1 µM [18]: 81% | remaining binding at 1 µM [19]: 89% | remaining binding at 1 µM [20]: 100% | remaining binding at 1 µM [21]: 100% | remaining binding at 1 µM [22]: 100% | remaining binding at 1 µM [23]: 89% | remaining binding at 1 µM [24]: 100% | remaining binding at 1 µM [25]: 100% | IC50 [26]: 21 µM | remaining binding at 1 µM [27]: 100% | remaining binding at 1 µM [28]: 95% | remaining binding at 1 µM [29]: 88% | remaining binding at 1 µM [30]: 100% | remaining binding at 1 µM [31]: 100% | remaining binding at 1 µM [32]: 100% | remaining binding at 1 µM [33]: 84% | remaining binding at 1 µM [34]: 100% | IC50 [35]: 25 µM | remaining binding at 1 µM [36]: 93% | remaining binding at 1 µM [37]: 100% | remaining binding at 1 µM [38]: 84%
